Data published in publication PMC6691816, “Discovery of aminopyridine-containing spiro derivatives as EGFR mutations inhibitors” (Journal of Enzyme Inhibition and Medicinal Chemistry, 2019).

What was measured:
EGF-R wt = biological target: T1, EGF-R wt (Homo sapiens, UniProt P00533); experiment: EGFR-wt protein kinase assay (33PanQinase), single concentration; assay type: biochemical; details: 0.5 μM (5 × 10^−7 M), singlicate, % of control activity; for remaining activity at 0.5 µM: read-out: Residual activity under 0.5 μM drug concentration (%) EGF-R wt
T1 construct: purchased ProQinase GmbH
Protocol: (§1) The inhibitory profile of 16 compounds was determined using two protein kinases. The compounds were tested at a concentration of 5 × 1 0^−7 M, in singlicate. The compounds were solved and diluted to 5 × 10^−5 M stock solutions in 100% DMSO according to the customer-filled CSF. 10 μL of each of the stock solutions were transferred into […] of a 96-well, Column 1 and 2 of the plate were filled with 10 μL100% DMSO. The plate is in the following referred to as “copy plate”. In the process, 90 μL H2O were added to each well of the copy plate. To minimize potential compound precipitation, the H2O was added to each well only a few minutes before the transfer of the compound solutions into the assay plates. The plate was shaken thoroughly, resulting in a “compound dilution plate” with a compound concentration of 5 × 10^−6 M/10% DMSO. This plate was used for the transfer of 5 μL compound solution into the assay plates. The final volume of the assay was 50 μL. All compounds were tested at 5 × 1 0^−7 M in singlicate. The final DMSO concentration in the reaction cocktails was 1% in all cases. The compound dilution plate was disposed.
(§2) A radiometric protein kinase assay (33PanQinase® Activity Assay) was used for measuring the kinase activity of the two protein kinases. All kinase assays were performed in 96-well FlashPlatesTM from PerkinElmer (Boston, MA, USA) in a 50 μL reaction volume. The reaction cocktail was pipetted in 4 steps in the following order: 20 μL of assay buffer, 5 μL of ATP solution (in H2O), 5 μL of test compound (in 10% DMSO), 20 μL enzyme/subtrate mix. The assay for both protein kinases contained 70 mM HEPES-NaOH pH 7.5, 3 mM MgCl2, 3 mM MnCl2, 3 μM Na-orthovanadate, 1.2 mM DTT, ATP. The assay for ERBB2 additionally contained 50 μg/mLPEG20000. The reaction cocktails were incubated at 30 °C for 60 min. The reaction was stopped with 50 μL of 2% (v/v) H3PO4, plates were aspirated and washed two times with 200 μL 0.9% (w/v) NaCl. Incorporation of 33Pi was determined with a microplate scintillation counter (Microbeta, Wallac). All assays were performed with a BeckmanCoulter/SAGIAN™Core System. The median value of the counts in column 1 (n = 8) of each assay plate was defined as “low control”. This value reflects unspecific binding of radioactivity to the plate in the absence of a protein kinase but in the presence of the substrate. The median value of the counts in column 2 of each assay plate (n = 8) was taken as the “high control”. As part of the data evaluation the low control value from a particular plate was subtracted from the high control value as well as from all 80 “compound values” of the corresponding plate. The residual activity (in %) for each well of a particular plate was calculated by using the following formula: Res. Activity (%) = 100 × [(cpm of compound – low control)/(high control − low control)]

HER2 = biological target: T2, HER2 (Homo sapiens, UniProt P04626); experiment: HER2 protein kinase assay (33PanQinase), single concentration; assay type: biochemical; details: 0.5 μM (5 × 10^−7 M), singlicate, % of control activity; for remaining activity at 0.5 µM: read-out: Residual activity under 0.5 μM drug concentration (%) HER2
T2 construct: purchased ProQinase GmbH
Protocol: as §1, §2

## C=CC(=O)N1CC2(CCN(C)CC2)c2cc(OC)c(Nc3ncc(C#N)c(Nc4ccc(OCc5ccccc5)c(Cl)c4)n3)cc21 [Compound A3, 4-{[4-(benzyloxy)-3-chlorophenyl]amino}-2-{[5-methoxy-1′-methyl-1-(prop-2-enoyl)-1,2-dihydrospiro[indole-3,4′-piperidine]-6-yl]amino}pyrimidine-5-carbonitrile]
EGF-R wt
  remaining activity at 0.5 µM: 19%
HER2
  remaining activity at 0.5 µM: 12%

## C=CC(=O)N1CC2(CCN(C)CC2)c2cc(OC)c(Nc3ncc(C#N)c(Nc4cnn(Cc5ccccn5)c4)n3)cc21 [Compound A4, 2-{[5-methoxy-1′-methyl-1-(prop-2-enoyl)-1,2-dihydrospiro[indole-3,4′ -piperidine]-6-yl]amino}-4-{[1-(pyridin-2-ylmethyl)-1H-pyrazol-4-yl]amino}pyrimidine-5-carbonitrile]
EGF-R wt
  Residual activity under 0.5 μM drug concentration (%) EGF-R wt: 27%
  remaining activity at 0.5 µM: 20 to 60%
HER2
  remaining activity at 0.5 µM: 34%

## COc1cc2c(cc1Nc1ncc(C#N)c(Nc3ccc(OCc4ccccn4)cc3)n1)N(C(=O)/C=C/CN(C)C)CC21CC1 [Compound B1, (2E)-4-{6′-[(5-cyano-4-{[4-(pyridin-2-ylmethoxy)phenyl]amino}pyrimidin-2-yl)amino]-5′-methoxyspiro[cyclopropane-1,3′-indole]-1′-yl}-1-(dimethylamino)-4-oxobut-2-en-2-yl]
EGF-R wt
  remaining activity at 0.5 µM: 92%
HER2
  remaining activity at 0.5 µM: 103%

## COc1cc2c(cc1Nc1ncc(C#N)c(Nc3ccc(OCc4ccccn4)c(Cl)c3)n1)N(C(=O)/C=C/CN(C)C)CC21CC1 [Compound B2, (2E)-4-{6′-[(4-{[3-chloro-4-(pyridin-2-ylmethoxy)phenyl]amino}-5-cyanopyrimidin-2-yl)amino]-5′-methoxyspiro[cyclopropane-1,3′-indole]-1′-yl}-1-(dimethylamino)-4-oxobut-2-en-2-yl]
EGF-R wt
  remaining activity at 0.5 µM: 97%
HER2
  remaining activity at 0.5 µM: 100%

## COc1cc2c(cc1Nc1ncc(C#N)c(Nc3ccc(OCc4ccccc4)c(Cl)c3)n1)N(C(=O)/C=C/CN(C)C)CC21CC1 [Compound B3, 4-{[4-(benzyloxy)-3-chlorophenyl]amino}-2-({1′-[(2E)-4-(dimethylamino)but-2-enoyl]-5′-methoxy-1′,2′-dihydrospiro[cyclopropane-1,3′-indole]-6′-yl}amino)pyrimidine-5-carbonitrile]
EGF-R wt
  remaining activity at 0.5 µM: 95%
HER2
  remaining activity at 0.5 µM: 102%

## C=CC(=O)N1CC2(CC2)c2cc(OC)c(Nc3ncc(C#N)c(Nc4ccc(OCc5ccccn5)cc4)n3)cc21 [Compound B4, 3-{6′-[(5-cyano-4-{[4-(pyridin-2-ylmethoxy)phenyl]amino}pyrimidin-2-yl)amino]-5′-methoxyspiro [cyclopropane-1, 3′-indole]-1′-yl}-3-oxoprop-1-en-2-yl]
EGF-R wt
  remaining activity at 0.5 µM: 87%
HER2
  remaining activity at 0.5 µM: 99%

## C=CC(=O)N1CC2(CC2)c2cc(OC)c(Nc3ncc(C#N)c(Nc4cnn(Cc5ccccn5)c4)n3)cc21 [Compound B7, 3-{6′-[(5-cyano-4-{[1-(pyridin-2-ylmethyl)pyrazol-4-yl]amino}pyrimidin-2-yl)amino]-5′-methoxyspiro[cyclopropane-1,3′-indole]-1′-yl}-3-oxoprop-1-en-2-yl]
EGF-R wt
  remaining activity at 0.5 µM: 89%
HER2
  remaining activity at 0.5 µM: 135%

## COc1cc2c(cc1Nc1ncc(C#N)c(Nc3ccc(OCc4ccccn4)cc3)n1)N(C(=O)/C=C/CN(C)C)CC1(CC1)O2 [Compound C1, (2E)-4-{6-[(5-cyano-4-{[4-(pyridin-2-ylmethoxy)phenyl]amino}pyrimidin-2-yl)amino]-7-methoxyspiro[1,4-benzoxazine-2,1′-cyclopropane]-4-yl}-1-(dimethylamino)-4-oxobut-2-en-2-yl]
EGF-R wt
  remaining activity at 0.5 µM: 86%
HER2
  remaining activity at 0.5 µM: 100%

## COc1cc2c(cc1Nc1ncc(C#N)c(Nc3ccc(OCc4ccccn4)c(Cl)c3)n1)N(C(=O)/C=C/CN(C)C)CC1(CC1)O2 [Compound C2, (2E)-4-{6-[(4-{[3-chloro-4-(pyridin-2-ylmethoxy)phenyl]amino}-5-cyanopyrimidin-2-yl)amino]-7-methoxyspiro[1,4-benzoxazine-2,1′-cyclopropane]-4-yl}-1-(dimethylamino)-4-oxobut-2-en-2-yl]
EGF-R wt
  remaining activity at 0.5 µM: 76%
HER2
  remaining activity at 0.5 µM: 108%

## COc1cc2c(cc1Nc1ncc(C#N)c(Nc3ccc(OCc4ccccc4)c(Cl)c3)n1)N(C(=O)/C=C/CN(C)C)CC1(CC1)O2 [Compound C3, (2E)-4-{6-[(4-{[4-(benzyloxy)-3-chlorophenyl]amino}-5-cyanopyrimidin-2-yl)amino]-7-methoxyspiro[1,4-benzoxazine-2,1′-cyclopropane]-4-yl}-1-(dimethylamino)-4-oxobut-2-en-2-yl]
EGF-R wt
  remaining activity at 0.5 µM: 79%
HER2
  remaining activity at 0.5 µM: 111%

## COc1cc2c(cc1Nc1ncc(C#N)c(Nc3cnn(Cc4ccccn4)c3)n1)N(C(=O)/C=C/CN(C)C)CC1(CC1)O2 [Compound C4, (2E)-4-{6-[(5-cyano-4-{[1-(pyridin-2-ylmethyl)pyrazol-4-yl]amino}pyrimidin-2-yl)amino]-7-methoxyspiro[1,4-benzoxazine-2,1′-cyclopropane]-4-yl}-1-(dimethylamino)-4-oxobut-2-en-2-yl]
EGF-R wt
  remaining activity at 0.5 µM: 85%
HER2
  remaining activity at 0.5 µM: 100%

## CCOc1cc2ncc(C#N)c(Nc3ccc(OCc4ccccn4)c(Cl)c3)c2cc1NC(=O)/C=C/CN(C)C [Neratinib, reference compound]
HER2
  remaining activity at 0.5 µM: 6%

## (2E)-4-{6′-[(5-cyano-4-{[1-(pyridin-2-ylmethyl)pyrazol-4-yl]amino} pyrimidin-2-yl)amino]-5′-methoxyspiro[cyclopropane-1,3′-indole]-1′-yl}-1-(dimethylamino)-4-oxobut-2-en-2-yl trifluoroacetate [Compound B6]
EGF-R wt
  Residual activity under 0.5 μM drug concentration (%) EGF-R wt: 94%
HER2
  Residual activity under 0.5 μM drug concentration (%) HER2: 113%
